Assay results from patent US10450378B2, “Cytotoxic and anti-mitotic compounds, and methods of using the same” (priority 2014, dated 2019).
Read-outs that look alike come from different tables or passages of the source.

Legend:
[1] = tested on: Jurkat cell line; experiment: Cytotoxicity of compounds of Formula I, Example 3 (CellTiter-Glo); assay type: cell-based, Human; details: for EC50: Homo sapiens, 72 h
Procedure: Compounds were tested on Jurkat and HCC1954 cell lines to assess their cytotoxicity. Compounds were titrated 1:3 starting at various concentrations (30 nM to 1000 nM). Control cytotoxin HTI-286 (see, e.g., U.S. Pat. No. 7,579,323) was also titrated 1:3 across starting with a 30 nM concentration. Plates were incubated for 3 days. Cell viability was quantified using 30 μL/well of 1× CellTiter-Glo reagent.
Each cell line was grown in its respective growth medium until seeding day. Cells were removed from their culture vessels and the resulting cell suspension was counted using the ViCell. Cells were then diluted in their growth medium to 25000/mL such that 100 μL/well=2500 cells/well. Each cell line was seeded in the inner 60 wells of 96-well black walled TC plates, outer wells filled with water. HCC1954 were seeded a day prior to assay set up. Cytotoxins were diluted as described below a 5× dose-response of each compound was prepared using RPMI+10% FBS in a deep-well 96-well plate. This “master” dilution plate was used for each cell line. 25 μL of the 5× dose responses was spiked into each cell line in triplicate. The plates were returned to the incubator and were incubated for 3 nights. After the 3 nights, cell viability was quantified using 30 μL/well of 1× CellTiter-glo reagent. After at least 10 minutes of incubation, the luminescence was measured using the SpectraMax (500 ms integration).

[2] = tested on: Human T-cell leukemia cell line Jurkat; experiment: Cellular cytotoxicity of compounds of Formula I, Example 3.1; assay type: cell-based; details: for EC50: Homo sapiens, Jurkat, read-out: EC50 (nM) Jurkat
Procedure: (§1) Compounds were tested on one or more of Human T-cell leukemia cell line Jurkat (ATCC: TIB-152); Human breast cancer cell lines HCC1954 (ATCC: CRL-2338) and JIMT-1 (DSMZ: ACC 589); Human Pancreatic cell line BxPC-3 (ATCC: CRL.1687), Human ovarian adenocarcinoma cell line SK-OV-3 (ATCC: HTB-77) and Human gastric carcinoma cell line NCI-N87 (ATCC: CRL. 5822); to assess their cytotoxicity.
(§2) Briefly, cells were obtained from commercial sources and cultured as described in the product sheet provided. Cells were removed from their culture vessels and the resulting cell suspension was counted using a ViCell (Beckman Coulter), then seeded at 25,000 cells/mL (2,500 cells/well) in Costar 3904 black walled, flat bottomed 96-well plates (cells were seeded in the inner 60 wells of 96-well TC plates, and outer edge wells filled with water). Adherent cell lines were incubated for one night at 37° C./5% CO2 atmosphere to allow the cells to attach to the microtiter plate surface, while suspension (Jurkat) cells were plated immediately before use. Cytotoxins were dissolved and serially diluted in dimethyl sulfoxide and then the solutions were added to complete growth medium at five-times the desired maximum final concentration. The cytotoxins were then titrated in growth medium, normally 1:3, over eight steps. A control with no test article present (growth medium alone) was included on each microtiter plate in sextuplicate. The prepared toxin titrations were added (25 μL/well) in triplicate to each cell line assayed. The cells and titrations were incubated at 37° C./5% CO2 for three nights (Jurkat) and five nights (all other cell lines). After the incubation, cell viability was measured using CellTiter-Glo® by adding 30 μL of prepared CellTiter-Glo® reagent to each assay well. The mixtures were incubated for at least twenty minutes in the dark prior to measuring emitted luminescence using a microplate luminometer (500 ms integration time). The collected relative luminescence units (RLU) were converted to % cytotoxicity using the growth medium alone control mentioned above (% Cytotoxicity=1-[well RLU/average medium alone control RLU]×100%).

[3] = tested on: Human Pancreatic cell line BxPC-3; experiment: as above; assay type: cell-based; details: five nights, CellTiter-Glo
Procedure: as §1, §2

[4] = tested on: Human gastric carcinoma cell line NCI-N87; experiment: as above; assay type: cell-based; details: five nights, CellTiter-Glo
Procedure: as §1, §2

[5] = 3 days incubation, CellTiter-Glo, read-out: EC50

CC[C@H](C)[C@@H]([C@@H](CC(=O)N1CCC[C@H]1[C@H](OC)[C@@H](C)C(=O)N[C@@H](Cc1ccccc1)C(=O)NS(=O)(=O)c1ccc(N)cc1)OC)N(C)C(=O)[C@@H](NC(=O)[C@H](C(C)C)N(C)C)C(C)C [Compound 11, (S)-N-((3R,4S,5S)-1-((S)-2-((1R,2R)-3-((S)-1-(4-Aminophenylsulfonamido)-1-oxo-3-phenylpropan-2-ylamino)-1-methoxy-2-methyl-3-oxopropyl)pyrrolidin-1-yl)-3-methoxy-5-methyl-1-oxoheptan-4-yl)-2-((S)-2-(dimethylamino)-3-methylbutanamido)-N,3-dimethylbutanamide]
EC50 [1, 5]: 52 nM | EC50 ([2]; three nights, CellTiter-Glo): 52 nM

CC[C@H](C)[C@@H]([C@@H](CC(=O)N1CCC[C@H]1[C@H](OC)[C@@H](C)C(=O)N[C@@H](Cc1ccccc1)C(=O)NS(=O)(=O)Cc1ccc(NC(=O)C(F)(F)F)cc1)OC)N(C)C(=O)[C@@H](NC(=O)[C@H](C(C)C)N(C)C)C(C)C [Compound 13, (S)-2-((S)-2-(Dimethylamino)-3-methylbutanamido)-N-((3R,4S,5S)-3-methoxy-1-((S)-2-((1R,2R)-1-methoxy-2-methyl-3-oxo-3-((S)-1-oxo-3-phenyl-1-(4-(2,2,2-trifluoroacetamido)phenylmethylsulfonamido)propan-2-ylamino)propyl)pyrrolidin-1-yl)-5-methyl-1-oxoheptan-4-yl)-N,3-dimethylbutanamide]
EC50 [1]: 20.9 nM | EC50 [2]: 20.9 nM

CC[C@H](C)[C@@H]([C@@H](CC(=O)N1CCC[C@H]1[C@H](OC)[C@@H](C)C(=O)N[C@@H](Cc1ccccc1)C(=O)NS(=O)(=O)c1ccc(NC(=O)C(F)(F)F)cc1)OC)N(C)C(=O)[C@@H](NC(=O)[C@H](C(C)C)N(C)C)C(C)C [Compound 10, (S)-2-((S)-2-(Dimethylamino)-3-methylbutanamido)-N-((3R,4S,5S)-3-methoxy-1-((S)-2-((1R,2R)-1-methoxy-2-methyl-3-oxo-3-((S)-1-oxo-3-phenyl-1-(4-(2,2,2-trifluoroacetamido)phenylsulfonamido)propan-2-ylamino)propyl)pyrrolidin-1-yl)-5-methyl-1-oxoheptan-4-yl)-N,3-dimethylbutanamide]
EC50 [1]: 45.3 nM | EC50 [2]: 45.3 nM

CN[C@H](C(=O)N[C@H](C(=O)N(C)[C@H](/C=C(\C)C(=O)O)C(C)C)C(C)(C)C)C(C)(C)c1ccccc1 [HTI-286, reference compound]
Killing by control cytotoxin ([1]; titrated 1:3 starting with 30 nM): successfully killed Jurkats at an expected concentration | Killing by control cytotoxin ([2]; stated for all cell lines of Example 3.1): successfully killed all cell lines at an expected concentration

CC[C@H](C)[C@@H]([C@@H](CC(=O)N1CCC[C@H]1[C@H](OC)[C@@H](C)C(=O)NS(=O)(=O)Cc1ccc(NC(=O)C(F)(F)F)cc1)OC)N(C)C(=O)[C@@H](NC(=O)[C@H](C(C)C)N(C)C)C(C)C [Compound 7, (S)-2-((S)-2-(Dimethylamino)-3-methylbutanamido)-N-((3R,4S,5S)-3-methoxy-1-((S)-2-((1R,2R)-1-methoxy-2-methyl-3-oxo-3-((4-(2,2,2-trifluoroacetamido)phenyl)methylsulfonamido)propyl)pyrrolidin-1-yl)-5-methyl-1-oxoheptan-4-yl)-N,3-dimethylbutanamide]
EC50 [1, 5]: 29.9 nM | EC50 ([2]; three nights, CellTiter-Glo): 29.9 nM

CC[C@H](C)[C@@H]([C@@H](CC(=O)N1CCC[C@H]1[C@H](OC)[C@@H](C)C(=O)N[C@@H](Cc1ccccc1)C(=O)NS(=O)(=O)c1ccc(CNC(=O)C(F)(F)F)cc1)OC)N(C)C(=O)[C@@H](NC(=O)[C@H](C(C)C)N(C)C)C(C)C [Compound 23, (S)-2-((S)-2-(Dimethylamino)-3-methylbutanamido)-N-((3R,4S,5S)-3-methoxy-1-((S)-2-((1R,2R)-1-methoxy-2-methyl-3-oxo-3-(((S)-1-oxo-3-phenyl-1-((4-((2,2,2-trifluoroacetamido)methyl)phenyl)sulfonamido)propan-2-yl)amino)propyl)pyrrolidin-1-yl)-5-methyl-1-oxoheptan-4-yl)-N,3-dimethylbutanamide]
EC50 [3]: 17.2 nM | EC50 [2]: 11.8 nM | EC50 [4]: 11.3 nM

CC[C@H](C)[C@@H]([C@@H](CC(=O)N1CCC[C@H]1[C@H](OC)[C@@H](C)C(=O)NS(=O)(=O)c1ccc(NC(=O)C(F)(F)F)cc1)OC)N(C)C(=O)[C@@H](NC(=O)[C@H]1CCCCN1C(C)C)C(C)C [Compound 15, (R)-1-Isopropyl-N-((S)-1-(((3R,4S,5S)-3-methoxy-1-((S)-2-((1R,2R)-1-methoxy-2-methyl-3-oxo-3-((4-(2,2,2-trifluoroacetamido)phenyl)sulfonamido)propyl)pyrrolidin-1-yl)-5-methyl-1-oxoheptan-4-yl)(methyl)amino)-3-methyl-1-oxobutan-2-yl)piperidine-2-carboxamide]
EC50 [3]: 14.5 nM | EC50 ([2]; three nights, CellTiter-Glo): 10.1 nM | EC50 [4]: 11.7 nM

CC[C@H](C)[C@@H]([C@@H](CC(=O)N1CCC[C@H]1[C@H](OC)[C@@H](C)C(=O)NS(=O)(=O)c1ccc(N)cc1)OC)N(C)C(=O)[C@@H](NC(=O)[C@H]1CCCCN1C(C)C)C(C)C [Compound 16, (R)-N-((S)-1-(((3R,4S,5S)-1-((S)-2-((1R,2R)-3-((4-Aminophenyl)sulfonamido)-1-methoxy-2-methyl-3-oxopropyl)pyrrolidin-1-yl)-3-methoxy-5-methyl-1-oxoheptan-4-yl)(methyl)amino)-3-methyl-1-oxobutan-2-yl)-1-isopropylpiperidine-2-carboxamide]
EC50 [3]: 17 nM | EC50 ([2]; three nights, CellTiter-Glo): 11.5 nM | EC50 [4]: 14.4 nM

CC[C@H](C)[C@@H]([C@@H](CC(=O)N1CCC[C@H]1[C@H](OC)[C@@H](C)C(=O)NS(=O)(=O)c1ccc(CNC(=O)C(F)(F)F)cc1)OC)N(C)C(=O)[C@@H](NC(=O)[C@H](C(C)C)N(C)C)C(C)C [Compound 21, (S)-2-((S)-2-(Dimethylamino)-3-methylbutanamido)-N-((3R,4S,5S)-3-methoxy-1-((S)-2-((1R,2R)-1-methoxy-2-methyl-3-oxo-3-((4-((2,2,2-trifluoroacetamido)methyl)phenyl)sulfonamido)propyl)pyrrolidin-1-yl)-5-methyl-1-oxoheptan-4-yl)-N,3-dimethylbutanamide]
EC50 [3]: > 100 nM | EC50 ([2]; three nights, CellTiter-Glo): ~100 nM | EC50 [4]: > 300 nM

CC[C@H](C)[C@@H]([C@@H](CC(=O)N1CCC[C@H]1[C@H](OC)[C@@H](C)C(=O)NS(=O)(=O)c1ccc(NC(=O)C(F)(F)F)cc1)OC)N(C)C(=O)[C@@H](NC(=O)[C@H](C(C)C)N(C)C)C(C)C [Compound 4, (S)-2-((S)-2-(Dimethylamino)-3-methylbutanamido)-N-((3R,4S,5S)-3-methoxy-1-((S)-2-((1R,2R)-1-methoxy-2-methyl-3-oxo-3-(4-(2,2,2-trifluoroacetamido)phenylsulfonamido)propyl)pyrrolidin-1-yl)-5-methyl-1-oxoheptan-4-yl)-N,3-dimethylbutanamide]
EC50 [1, 5]: 18.1 nM | EC50 ([2]; three nights, CellTiter-Glo): 18.1 nM
